Data set [1] has as its system Protease XXIII from Aspergillus oryzae (Sigma, Enzyme A). In words: Homogeneous aqueous enzymatic resolution (ester hydrolysis), Enzyme A. The class given is biochemical. Here is the method:
No further purification was performed.

In data set [2] the test system is protease Prozyme 6 from Aspergillus oryzae (Amano, Enzyme F). Put plainly: Homogeneous aqueous enzymatic resolution (ester hydrolysis), Enzyme F. Format: biochemical. The note with it: for % CONVERSION: 10 mmol ester in 100 ml 0.2M buffer pH 7.0, 25 C. How it is done: (§1) The enzymatic reaction mixtures were capped and briefly shaken until all the substrate had dissolved, and the enzyme had completely dissolved or dispersed. […] Evaporation of the ether left a white solid. Rotations were measured at c=1 in CHCl3.
as §1
The reaction was started by adding 100 mg of the protease (F) from the fungus Aspergillus oryzae (from Amano Enzyme Corporation, Prozyme 6, 60,000 units per mg of solid).
After 20 hours at room temperature, the solution was acidified to pH 2 and extracted with 3 volumes of diethyl ether. The aqueous phase was saved for subsequent workup. The ether phase was washed with two volumes of distilled water and then one volume of saturated sodium chloride, and then it was dried over MgSO4 and subsequently evaporated to dryness. The resolved ibuprofen product recovered was 930 mg of white powder, indicating 45% conversion of racemic ester to acid. The optical rotation was -0.580° (measured at c=1 in ethanol), indicating the R isomer of ibuprofen.
35 mg of protease Enzyme F, as the commercial preparation Prozyme 6, were added to the aqueous solution. The reaction flask was capped, and briefly shaken until all the enzyme had dissolved or dispersed. […] The resulting mixture was diluted with one volume of water and was extracted with diethyl ether (2 times 200 ml). The ether layers were combined and backwashed with water (2 times 200 ml), saturated NaCl solution (200 ml), and then dried over MgSO4.
In this control run, a 0.5M ester solution of (1) was prepared in 325 ml of 0.1M sodium phosphate buffer (pH 7.0). The reaction was started by adding 3 gm of the above enzyme (F). The pH was controlled at 7.0 with 8.22M sodium hydroxide. After 6.49 hours at 30 ° C., 6.63 ml of hydroxide were added, indicating 37.7% conversion. The reaction was allowed to continue overnight and, after 23.1 hours, a total of 7.2 ml of sodium hydroxide were added, indicating 40.9% conversion.

The subject of data set [3] is lipase derived from Candida cylindracea (Genzyme, Enzyme G). In words: Asymmetric hydrolysis in a multiphase membrane bioreactor, Enzyme G.
Experimental: 3.0 grams of the lipase were dissolved in 500 mls of distilled water; this solution was recirculated in an ultrafiltration mode from the shell into the lumen and back to the reservoir for 30 minutes. The ultrafiltrate was then collected until the reservoir was empty, and methyl isobutyl ketone (MIBK) was then pumped into the shell and recirculated at 400-450 ml/min with a 5-7 psig shell pressure to remove any remaining enzyme solution from the shell.
A reactor was prepared as described in Example 6.2.2.5 (naproxen) using essentially the same mode of loading the enzyme, 3.0 grams of Candida lipase (Enzyme G, from Genzyme Corporation) were ultrafiltered from the shell into the lumen. The enzyme was then washed with 2-3 l of distilled water and 1 l of potassium phosphate buffer (0.10 M, pH 7.7). The module was then drained.
No organic solvent was required as the substrate is already a water-immiscible liquid. Phosphate buffer was immediately pumped into the lumen and recirculated at 400-450 ml/min.
The reaction was monitored by following acid production based on hydroxide titration data. […] The aqueous buffer was replaced after 76 minutes and acidified to pH 2.0 with concentrated HCl in the presence of about 200 ml of chloroform.
Data set [4] has as its system Candida lipase (Sigma L-1754, Enzyme H). Put plainly: Asymmetric hydrolysis in a multiphase membrane bioreactor, Enzyme H. The note with it: 210 gm neat ester.
Experimental: The enzyme solution was recirculated from the shell side to the lumen side and back to the solution reservoir in an ultra-filtration mode. […] The procedure was completed in one hour.
After loading the enzyme to the reactor, recirculation of 210 gm. […] The recirculation rate was 400 ml/min and the average pressure on the shell compartment was kept at 6.5 psi by adjusting a throttling valve at the shell side exit. On the lumen side 1 liter of 0.05M K was recirculated at a rate of 400 ml/min. The pH of the aqueous reservoir was kept at 7.0 by addition of 1M NaOH. The reactor was run continuously for 6.8 days.
The reaction progress and rate were monitored by following the caustic consumption. […] The initial ester substrate to the reactor had no optical rotation.
Data set [5] addresses T1, Protease VIII, Subtilopeptidase A (subtilisin Carlsberg) (Sigma, Enzyme B) (Bacillus licheniformis, UniProt P00780).
T1 sequence (P00780 106-379): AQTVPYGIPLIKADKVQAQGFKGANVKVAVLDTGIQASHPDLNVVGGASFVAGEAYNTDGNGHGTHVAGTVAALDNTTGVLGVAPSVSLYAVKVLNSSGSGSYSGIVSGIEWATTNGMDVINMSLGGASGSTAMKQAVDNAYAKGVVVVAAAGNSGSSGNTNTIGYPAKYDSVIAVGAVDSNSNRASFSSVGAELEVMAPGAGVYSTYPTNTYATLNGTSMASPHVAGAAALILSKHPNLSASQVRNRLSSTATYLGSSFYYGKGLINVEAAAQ
Put plainly: Homogeneous aqueous enzymatic resolution (ester hydrolysis), Enzyme B. The class given is biochemical. The note with it: for % e.e.: acid product.

The subject of data set [6] is Pig Liver Esterase (Sigma E-3128, Enzyme E). Put plainly: Homogeneous aqueous enzymatic resolution (ester hydrolysis), Enzyme E. The class given is biochemical. To be noted: 30 mg Pig Liver Esterase (E).
The target of data set [7] is T2, Protease XXVII, Nagarse (Sigma, Enzyme D) (Bacillus amyloliquefaciens, UniProt P00782).
T2 construct: purchased Sigma
T2 sequence (P00782 108-382): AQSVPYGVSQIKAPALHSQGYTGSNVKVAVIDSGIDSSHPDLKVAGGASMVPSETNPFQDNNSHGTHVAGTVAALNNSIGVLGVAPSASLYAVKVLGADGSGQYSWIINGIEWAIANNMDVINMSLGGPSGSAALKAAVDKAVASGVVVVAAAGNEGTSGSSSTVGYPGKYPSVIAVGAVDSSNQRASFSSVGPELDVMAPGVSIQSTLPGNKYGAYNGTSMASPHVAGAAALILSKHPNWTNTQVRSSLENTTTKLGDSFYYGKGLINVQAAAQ
Put plainly: Homogeneous aqueous enzymatic resolution (ester hydrolysis), Enzyme D. Format: biochemical. The note with it: 150 mg enzyme D.

The mark [8] stands for this setting: 0.010 mol ester in 100 ml 0.2M sodium phosphate pH 7.8.

Where a name gives a salt, the structure may show the parent alone. Bounds are passed on as bounds.

These results are taken from patent US5198568A, “Compounds useful in enzymatic resolution systems and their preparation” (priority 1991, dated 1993).

In the case of `COc1ccc2cc(C(C)C(=O)OCCCS(=O)(=O)O)ccc2c1` (stereo not shown) [Compound 7, Potassium Salt of the 3-Sulfopropyl Ester of 2-(6-Methoxy-2-naphthyl)propanoic Acid], the “% e.e.” value in data set [1] (naproxen acid product, 150 mg enzyme A, pH 7.8, 18 hours (Table 12)) worked out at 78.0%.

Turning to `CC(Oc1ccc(Cl)cc1)C(=O)OCS(=O)(=O)O` (stereo not shown) [Compound 17, Sodium Salt of the Sulfomethyl Ester of 2-(4-Chlorophenoxy)propanoic Acid], the completion of reaction in data set [2] (35 mg Prozyme 6 (F), 10 mmol ester in 100 ml 0.2M sodium phosphate pH 7.0, 30 C, 1 hour) came to 22.5%.

With `COC(=O)C(C)c1ccc2cc(OC)ccc2c1` (stereo not shown) [Compound 18, Methyl Ester of 2-(6-Methoxy-2-naphthyl)propanoic Acid], the “average rate of hydrolysis, first 45 minutes” value in data set [3] (0.75M ester in MIBK, 3.0 grams lipase in 0.85 m2 module, pH 8.50) stood at 35 µmol/h.

As to `COc1ccc2cc(C(C)C(=O)OCC[N+](C)(C)C)ccc2c1` (stereo not shown) [Compound 11, Methyl Sulfate Salt of 2-(N,N,N-Trimethylammonium)ethyl Ester of 2-(6-Methoxy-2-naphthyl)propanoic Acid], the “% CONVERSION” value in data set [2] (100 mg Prozyme 6 (F), 18 hours) amounted to 24.3%. Further, the “% e.e.” value in data set [2] (naproxen acid product, 100 mg Prozyme 6 (F), pH 7.0, 25 C, 18 hours) is on record as 34.0%.

`COc1ccc2cc(C(C)C(=O)OCCC[N+](C)(C)C)ccc2c1` (stereo not shown) [Compound 12, Methyl Sulfate Salt of 3-(N,N,N-Trimethylammonium)propyl Ester of 2-(6-Methoxy-2-naphthyl)propanoic Acid]: in data set [2] (100 mg Prozyme 6 (F), 18 hours), the “% CONVERSION” value is given as 34.0%.

With `CC(C)Cc1ccc(C(C)C(=O)OCC(F)(F)F)cc1` (stereo not shown) [Compound 19, 2,2,2-Trifluoroethyl Ester of 2-(4-Isobutylphenyl)propanoic Acid], the “average hydrolytic rate, first 60 minutes” value in data set [3] (neat liquid ester, 3.0 grams lipase, pH 7.7) was 160 µmol/min. Moreover, the “average hydrolysis rate, next 76 hours” value in data set [3] (neat liquid ester, 3.0 grams lipase, pH 7.7, by titrimetry) stood at 21 µmol/min. Besides, in data set [3] (neat liquid ester, 3.0 grams lipase, pH 7.7, over the 76 hours), the conversion to acid result is on record as “about 9.8%”.

Take `COc1ccc2cc(C(C)C(=O)OCCS(=O)(=O)O)ccc2c1` (stereo not shown) [Compound 8, Potassium Salt of 2-Sulfoethyl Ester of 2-(6-Methoxy-2-naphthyl) propanoic Acid]: the “% e.e.” value in data set [1] (naproxen acid product, 150 mg enzyme A, pH 7.8 (Table 13)) is reported as 59.0%.

`COc1ccc2cc(C(C)C(=O)OCS(=O)(=O)O)ccc2c1` (stereo not shown) [Compound 9, Sodium Salt of Sulfomethyl Ester of 2-(6-Methoxy-2-naphthyl)propanoic Acid]: the “enantiomeric excess of S isomer of Naproxen (from unconverted ester hydrolyzed at pH 12)” value in data set [1] (100 mg enzyme A, pH 7.5, 25 degrees, 16 hours, from rotation in CHCl3) came to 45.5%.

In the case of `CCCCCCCCOC(=O)C(C)Cl` (stereo not shown) [Compound 20, Octyl Ester of 2-Chloropropanoic Acid], the “rate of ester hydrolysis at the beginning of the experiment” value in data set [4] (30 grams lipase loaded, pH 7.0) worked out at 186 µmol/min. Also, in data set [4] (pH 7.0, run 6.8 days), the “initial ester hydrolyzed at termination” value was determined as 41% and the “rate of ester hydrolysis at the end of the experiment” value was found to be 25 µmol/min.

Consider `CC(CSC(=O)c1ccccc1)C(=O)OCS(=O)(=O)O` (racemic) [Compound 16, Potassium Salt of the Sulfomethyl Ester of (±)-S-3-Benzoylthio-2-methylpropanoic Acid], for which the “% CONVERSION” value in data set [1] (100 mg enzyme A, 10.0 mmol ester in 100 ml 0.2M buffer pH 7.0, 25 C, 18 hours) is 53%; in data set [5] (100 mg enzyme B, 10.0 mmol ester in 100 ml 0.2M buffer pH 7.0, 25 C, 18 hours), 26%. The “% e.e.” value was 3% in data set [1] (acid product, 100 mg enzyme A, pH 7.0, 25 C, 18 hours) and 10% in data set [5] (100 mg enzyme B, pH 7.0, 25 C, 18 hours).

Turning to `CC(C)Cc1ccc(C(C)C(=O)OCCCS(=O)(=O)O)cc1` (racemic) [Compound 3, Potassium Salt of 3-SulfopropylEster of 2-(4-Isobutylphenyl)propanoic Acid], the “% CONVERSION” value is 12.1% in data set [6] (setting [8]); 50.0% in data set [1] (100 mg enzyme A, 10 mmol ester in 100 ml 0.2 M phosphate buffer pH 7.0, 20-22 C, 20 hours); 32.0% in data set [7] (setting [8]). Also, the “% e.e.” value in data set [6] (acid product, pH 7.8) amounted to 88.0%; in data set [7] (acid product, pH 7.8), 91.0%. In addition, the “conversion of the racemic ester to acid” value in data set [1] (1.00 gm enzyme A, about 1M ester, pH 7.0, room temperature, 23.9 hours, by NaOH titration) was 29%.

For `CC(C)Cc1ccc(C(C)C(=O)OCCCCS(=O)(=O)O)cc1` (stereo not shown) [Compound 4, Potassium Salt of 4-Sulfobutyl Ester of 2-(4-Isobutylphenyl)propanoic Acid], the “% CONVERSION” value in data set [5] (100 mg enzyme B, 10 mmol ester in 100 ml 0.2 M phosphate buffer pH 7.0, 20-22 C, 20 hours) is 20.0%.

As to `CC(C)Cc1ccc(C(C)C(=O)OCCS(=O)(=O)O)cc1` (stereo not shown) [Compound 2, Sodium Salt of 2-Sulfoethyl Ester of 2-(4-Isobutylphenyl)propanoic Acid], the “% e.e.” value is listed as over 99% in data set [1] (acid product, 150 mg enzyme A, 125 ml, pH 7.0, 18 hours) and 90.0% in data set [5] (150 mg enzyme B, 125 ml, pH 7.0, 18 hours).

For the compound `CC(C)Cc1ccc(C(C)C(=O)OCC[N+](C)(C)C)cc1` (racemic) [Compound 10, Iodide Salt of 2-(N,N,N-Trimethylammonium)ethyl Ester of 2-(4-Isobutylphenyl)propanoic Acid], the “% e.e.” value in data set [1] (acid product, 100 mg enzyme A, pH 7.0, 20-22 C, 20 hours) is given as over 99%.
